Values quoted from earlier work, collected in patent US4375464A, “Antibiotic AY24,668 and process of preparation” (Ayerst, McKenna & Harrison Inc., priority 1981, dated 1983).

Key:
[1] = R. R. Martel et al., Can. J. Physiol., 55, 48 (1977)
[2] = tested on: Candida albicans
[3] = tested on: Candida albicans; remark: listed apart in the source

CO[C@H]1C[C@@H]2CC[C@@H](C)[C@@](O)(O2)C(=O)C(=O)N2CCCC[C@H]2C(=O)O[C@H]([C@H](C)C[C@@H]2CC[C@@H](O)[C@H](OC)C2)CC(=O)[C@H](C)/C=C(\C)[C@@H](O)[C@@H](OC)C(=O)[C@H](C)C[C@H](C)/C=C/C=C/C=C/1C [rapamycin]
immunosuppressant activity [1]: immunosuppressant activity | effectiveness against Candida albicans in vivo [2]: particularly effective | effectiveness against Candida albicans in vitro [3]: particularly effective
